According to PMC10714399, “Open Source Antibiotics: Simple Diarylimidazoles Are Potent against Methicillin-Resistant Staphylococcus aureus” (ACS Infectious Diseases, 2023):
≈ marks a conversion by molar mass, not a printed value.

Tested on: not listed separately
Experiment: Aqueous solubility
Type: physicochemical
Settings: thermodynamic from solid; NEU; read-out: Aqueous Solubility (NEU)
Excerpt: (§1) To guide our initial SAR exploration work, we obtained liver microsomal intrinsic clearance data for 5 of the 18 compounds assayed by CO-ADD (Supporting Information - CDCO Report and Supporting Information - Biology). We then acquired intrinsic clearance (CLint), plasma protein binding (PPB), and solubility data on further compounds throughout the SAR campaign (Supporting Information - Biology, Tables S3 and S4). […] The more polar compounds (lower LogD) had reduced PPB and were more metabolically stable.
(§2) Table S4. ADME and Pharmacokinetics: compounds only appearing in the Supplementary […]
(§3) MRSA Aqueous HLM CLint Rat Hep CLint
(§4) Cmpd MIC Solubility Human PPB (%) (µL/min/mg (µL/min/10x6 LogD7.4
(§5) (µg/mL) (µM) protein) cells)
(§6) ADME and toxicity for compounds were measured according to procedures outlined in the manuscript submitted in parallel to this one;2 other procedures were used for those compounds analysed by Monash University (in vitro ADME) or UCL (toxicity), both described in the main

| solubility [µM] | Structure (SMILES) |
| --- | --- |
| 4 (≈ 1.59 µg/mL) | CN(c1ccc(F)cc1)c1c(-c2ccccn2)nc2ccc(Br)cn12 [OSA_001003] |
| 7 (≈ 2.55 µg/mL) | CSc1ccc2nc(-c3ccccn3)c(N(C)c3ccc(F)cc3)n2c1 [OSA_001004] |
| 64 (≈ 21.5 µg/mL) | CN(c1ccc(F)cc1)c1c(-c2ccccn2)nc2cccc(F)n12 [OSA_001005] |
| 26 (≈ 8.74 µg/mL) | CN(c1ccc(F)cc1)c1c(-c2ccccn2)nc2c(F)cccn12 [OSA_001006] |

Second part, the molecule before the results:

| Structure (SMILES) | solubility [µM] |
| --- | --- |
| Fc1ccc(Nc2c(-c3ccccn3)nc3sccn23)cc1 [OSA_000984] | 54 (≈ 16.8 µg/mL) |
| COc1ccc(-c2nc3ccc(OC)cn3c2N(C)c2ccc(F)cc2)nc1 [OSA_000999] | 27 (≈ 10.2 µg/mL) |
| COc1cccn2c(N(C)c3ccc(F)cc3)c(-c3ccccn3)nc12 [OSA_001001] | 26 (≈ 9.06 µg/mL) |

Tested on: MRC-5SV2 (human lung fibroblast cell line)
Experiment: Toxicity against MRC-5SV2
Type: cell-based
Settings: MRC5 cells
Protocol: as §6

| Structure (SMILES) | MRC5 TC50 [µM] |
| --- | --- |
| Fc1ccc(Nc2c(-c3ccccn3)nc3sccn23)cc1 [OSA_000984] | 6.4 |

Tested on: not listed separately
Experiment: Human plasma protein binding (PPB)
Type: in vitro ADME
Settings: human, plasma, human plasma, NEU; read-out: Human PPB (NEU) (converted)
Excerpt: (§7) To guide our initial SAR exploration work, we obtained liver microsomal intrinsic clearance data for 5 of the 18 compounds assayed by CO-ADD (Supporting Information - CDCO Report and Supporting Information - Biology). We then acquired intrinsic clearance (CLint), plasma protein binding (PPB), and solubility data on further compounds throughout the SAR campaign (Supporting Information - Biology, Tables S3 and S4).
as §2, §3, §4, §5, §6

| fraction unbound | Structure (SMILES) |
| --- | --- |
| 0.0018 | CN(c1ccc(F)cc1)c1c(-c2ccccn2)nc2ccc(Br)cn12 [OSA_001003] |
| 0.0054 | CSc1ccc2nc(-c3ccccn3)c(N(C)c3ccc(F)cc3)n2c1 [OSA_001004] |
| 0.035 | CN(c1ccc(F)cc1)c1c(-c2ccccn2)nc2cccc(F)n12 [OSA_001005] |
| 0.034 | CN(c1ccc(F)cc1)c1c(-c2ccccn2)nc2c(F)cccn12 [OSA_001006] |

The next lines start with the molecule.

| Structure (SMILES) | fraction unbound |
| --- | --- |
| Fc1ccc(Nc2c(-c3ccccn3)nc3sccn23)cc1 [OSA_000984] | 0.014 |
| COc1ccc(-c2nc3ccc(OC)cn3c2N(C)c2ccc(F)cc2)nc1 [OSA_000999] | 0.0063 |
| COc1cccn2c(N(C)c3ccc(F)cc3)c(-c3ccccn3)nc12 [OSA_001001] | 0.026 |

Tested on: Staphylococcus aureus NCTC 13373 (mecA-positive; methicillin-resistant)
Experiment: In vitro antibacterial activity, MIC (UCL School of Pharmacy assay), MRSA
Type: cell-based
Settings: Staphylococcus aureus, UCL; read-out: MRSA MIC (UCL)
Summary of the method: (§8)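 Strains: MRSA NCTC 13373, MSSA ATCC 25923, vanA E. faecalis ATCC 51299. Overnight agar growth suspended in PBS, A600 0.1, diluted 1:100 into isosensitest broth; 2-fold compound dilutions 32–0.03 μg/mL, ≤2% DMSO. Vancomycin QC.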

| MIC [µg/mL] | Structure (SMILES) |
| --- | --- |
| 16 (≈ 40.3 µM) | CN(c1ccc(F)cc1)c1c(-c2ccccn2)nc2ccc(Br)cn12 [OSA_001003] |
| 8 (≈ 22 µM) | CSc1ccc2nc(-c3ccccn3)c(N(C)c3ccc(F)cc3)n2c1 [OSA_001004] |
| 32 (≈ 95.1 µM) | CN(c1ccc(F)cc1)c1c(-c2ccccn2)nc2cccc(F)n12 [OSA_001005] |
| > 32 | CN(c1ccc(F)cc1)c1c(-c2ccccn2)nc2c(F)cccn12 [OSA_001006] |

Second part, the molecule before the results:

| Structure (SMILES) | MIC [µg/mL] |
| --- | --- |
| Fc1ccc(Nc2c(-c3ccccn3)nc3sccn23)cc1 [OSA_000984] | 8 (≈ 25.8 µM) |
| COc1ccc(-c2nc3ccc(OC)cn3c2N(C)c2ccc(F)cc2)nc1 [OSA_000999] | 8 (≈ 21.1 µM) |
| COc1cccn2c(N(C)c3ccc(F)cc3)c(-c3ccccn3)nc12 [OSA_001001] | 16 (≈ 45.9 µM) |

Tested on: S. aureus ATCC 25923 (methicillin-susceptible)
Experiment: In vitro antibacterial activity, MIC (UCL), MSSA
Type: cell-based, Staphylococcus aureus
Settings: Staphylococcus aureus; read-out: MSSA MIC (UCL)
Summary of the method: as §8

| MIC [µg/mL] | Structure (SMILES) |
| --- | --- |
| 16 (≈ 40.3 µM) | CN(c1ccc(F)cc1)c1c(-c2ccccn2)nc2ccc(Br)cn12 [OSA_001003] |
| 8 (≈ 22 µM) | CSc1ccc2nc(-c3ccccn3)c(N(C)c3ccc(F)cc3)n2c1 [OSA_001004] |
| 32 (≈ 95.1 µM) | CN(c1ccc(F)cc1)c1c(-c2ccccn2)nc2cccc(F)n12 [OSA_001005] |
| > 32 | CN(c1ccc(F)cc1)c1c(-c2ccccn2)nc2c(F)cccn12 [OSA_001006] |

Second part, the molecule before the results:

| Structure (SMILES) | MIC [µg/mL] |
| --- | --- |
| Fc1ccc(Nc2c(-c3ccccn3)nc3sccn23)cc1 [OSA_000984] | 4 (≈ 12.9 µM) |
| COc1ccc(-c2nc3ccc(OC)cn3c2N(C)c2ccc(F)cc2)nc1 [OSA_000999] | 8 (≈ 21.1 µM) |
| COc1cccn2c(N(C)c3ccc(F)cc3)c(-c3ccccn3)nc12 [OSA_001001] | 16 (≈ 45.9 µM) |

Tested on: not listed separately
Experiment: LogD7.4 (Chrom Log D)
Type: physicochemical
Settings: chromatographic system (Chrom Log D); pH 7.4, NEU; read-out: LogD 7.4 (NEU)
Excerpt: as §1, §2, §3, §4, §5, §6

| chromatographic logD | Structure (SMILES) |
| --- | --- |
| 4.2 | CN(c1ccc(F)cc1)c1c(-c2ccccn2)nc2ccc(Br)cn12 [OSA_001003] |
| 4.5 | CSc1ccc2nc(-c3ccccn3)c(N(C)c3ccc(F)cc3)n2c1 [OSA_001004] |
| 1.8 | CN(c1ccc(F)cc1)c1c(-c2ccccn2)nc2cccc(F)n12 [OSA_001005] |
| 3.3 | CN(c1ccc(F)cc1)c1c(-c2ccccn2)nc2c(F)cccn12 [OSA_001006] |

The remaining lines, values behind:

| Structure (SMILES) | chromatographic logD |
| --- | --- |
| Fc1ccc(Nc2c(-c3ccccn3)nc3sccn23)cc1 [OSA_000984] | 0.9 |
| COc1cccn2c(N(C)c3ccc(F)cc3)c(-c3ccccn3)nc12 [OSA_001001] | 3.5 |

Tested on: not listed separately
Experiment: Human liver microsome intrinsic clearance
Type: in vitro ADME
Settings: human liver microsomes, NEU
Excerpt: as §7, §2, §3, §4, §5, §6

| HLM CLint (NEU) [uL/min/mg protein] | Structure (SMILES) |
| --- | --- |
| 261 | COc1ccc(-c2nc3ccc(OC)cn3c2N(C)c2ccc(F)cc2)nc1 [OSA_000999] |

Same assay, conditions: human liver microsomes, NEU; read-out: HLM CLint (NEU)

| microsomal CLint [µL/min/mg] | Structure (SMILES) |
| --- | --- |
| 65.9 | COc1cccn2c(N(C)c3ccc(F)cc3)c(-c3ccccn3)nc12 [OSA_001001] |
| 61.6 | CN(c1ccc(F)cc1)c1c(-c2ccccn2)nc2ccc(Br)cn12 [OSA_001003] |
| > 300 | CSc1ccc2nc(-c3ccccn3)c(N(C)c3ccc(F)cc3)n2c1 [OSA_001004] |
| 79.3 | CN(c1ccc(F)cc1)c1c(-c2ccccn2)nc2cccc(F)n12 [OSA_001005] |
| 127 | CN(c1ccc(F)cc1)c1c(-c2ccccn2)nc2c(F)cccn12 [OSA_001006] |

Tested on: VSE
Experiment: In vitro antibacterial activity, MIC, VSE
Type: cell-based
Settings: read-out: VSE MIC (UCL)

| MIC [µg/mL] | Structure (SMILES) |
| --- | --- |
| 16 (≈ 42.3 µM) | COc1ccc(-c2nc3ccc(OC)cn3c2N(C)c2ccc(F)cc2)nc1 [OSA_000999] |

Tested on: Enterococcus faecalis ATCC 51299 (vanA-positive; vancomycin-resistant)
Experiment: In vitro antibacterial activity, MIC (UCL), VRE
Type: cell-based
Settings: read-out: VRE MIC (UCL)
Summary of the method: as §8

| MIC [µg/mL] | Structure (SMILES) |
| --- | --- |
| 8 (≈ 25.8 µM) | Fc1ccc(Nc2c(-c3ccccn3)nc3sccn23)cc1 [OSA_000984] |
| 16 (≈ 42.3 µM) | COc1ccc(-c2nc3ccc(OC)cn3c2N(C)c2ccc(F)cc2)nc1 [OSA_000999] |

Tested on: not listed separately
Experiment: Rat hepatocyte intrinsic clearance
Type: in vitro ADME
Settings: rat hepatocytes, NEU; read-out: Rat Hep CLint (NEU)
Excerpt: as §7, §2, §3, §4, §5, §6

| hepatocyte CLint [µL/min/1e6 cells] | Structure (SMILES) |
| --- | --- |
| > 300 | CN(c1ccc(F)cc1)c1c(-c2ccccn2)nc2ccc(Br)cn12 [OSA_001003] |
| > 300 | CSc1ccc2nc(-c3ccccn3)c(N(C)c3ccc(F)cc3)n2c1 [OSA_001004] |
| > 300 | CN(c1ccc(F)cc1)c1c(-c2ccccn2)nc2cccc(F)n12 [OSA_001005] |
| 209 | CN(c1ccc(F)cc1)c1c(-c2ccccn2)nc2c(F)cccn12 [OSA_001006] |

Further lines, the molecule ahead of its results:

| Structure (SMILES) | hepatocyte CLint [µL/min/1e6 cells] |
| --- | --- |
| Fc1ccc(Nc2c(-c3ccccn3)nc3sccn23)cc1 [OSA_000984] | > 300 |
| COc1ccc(-c2nc3ccc(OC)cn3c2N(C)c2ccc(F)cc2)nc1 [OSA_000999] | > 300 |
| COc1cccn2c(N(C)c3ccc(F)cc3)c(-c3ccccn3)nc12 [OSA_001001] | > 300 |

Tested on: PMM (primary mouse macrophages)
Experiment: Toxicity against PMM
Type: cell-based
Settings: PMM
Protocol: as §6

| Structure (SMILES) | PMM TC50 [µM] |
| --- | --- |
| Fc1ccc(Nc2c(-c3ccccn3)nc3sccn23)cc1 [OSA_000984] | 32 |
